Experimental data as given in ChEMBL document CHEMBL1126354, “Structural analysis of 2-aryl-1,3-dione compounds as inhibitors of 5-lipoxygenase” (Bioorg Med Chem Lett, 1992).

These compounds were tested against T1, Polyunsaturated fatty acid 5-lipoxygenase (Rattus norvegicus, UniProt P12527) (assay: In vitro inhibition of 5-lipoxygenase activity in RBL-1 cells.).
T1 sequence (P12527 whole entry): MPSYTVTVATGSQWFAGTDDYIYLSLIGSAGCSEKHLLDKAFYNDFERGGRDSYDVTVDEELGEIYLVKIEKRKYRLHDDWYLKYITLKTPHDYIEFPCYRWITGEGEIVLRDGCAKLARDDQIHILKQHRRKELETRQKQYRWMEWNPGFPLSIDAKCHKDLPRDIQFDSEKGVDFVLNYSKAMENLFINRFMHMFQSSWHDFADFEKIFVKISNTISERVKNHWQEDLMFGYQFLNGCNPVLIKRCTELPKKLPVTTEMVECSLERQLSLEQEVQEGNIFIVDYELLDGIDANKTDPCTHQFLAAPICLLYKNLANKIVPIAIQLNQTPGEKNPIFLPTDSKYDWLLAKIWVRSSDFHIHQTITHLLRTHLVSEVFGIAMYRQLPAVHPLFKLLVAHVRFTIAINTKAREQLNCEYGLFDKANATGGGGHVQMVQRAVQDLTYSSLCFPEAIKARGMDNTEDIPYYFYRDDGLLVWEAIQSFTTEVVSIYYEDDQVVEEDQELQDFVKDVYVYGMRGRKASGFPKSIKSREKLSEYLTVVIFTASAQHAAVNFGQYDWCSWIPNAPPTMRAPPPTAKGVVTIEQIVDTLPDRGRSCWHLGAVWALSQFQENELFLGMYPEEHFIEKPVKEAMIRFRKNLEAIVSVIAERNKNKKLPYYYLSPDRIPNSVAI
Type: cell-based

Compound	IC50 [µM]
O=C1c2ccccc2C(=O)C1c1ccc2ccccc2c1	3.2
O=C1c2ccccc2C(=O)C1(F)c1ccc2ccccc2c1	2
CCCCc1ccc(C2C(=O)CCCCCC2=O)cc1	12
CSc1ccc(C2C(=O)c3ccccc3C2=O)cc1	2.7
O=C1c2ccccc2C(=O)C1c1ccccc1 [PHENINDIONE]	15
CSC1(c2ccccc2)C(=O)c2ccccc2C1=O	15
O=C1c2ccccc2C(=O)C1c1ccc(F)cc1 [FLUINDIONE]	9.6
O=C1c2ccccc2C(=O)C1c1ccc(Cl)cc1 [CLORINDIONE]	5
O=C1CCCCC(=O)C1c1ccccc1	41
O=C1c2ccccc2C(=O)C1(Sc1ccccc1)c1ccccc1	4.8
CCCCc1ccc(C2C(=O)c3ccccc3C2=O)cc1	1.7
CN(C)c1ccc(C2C(=O)c3ccccc3C2=O)cc1	4.5
O=C1c2ccccc2C(=O)C1(F)c1ccccc1	1.7
COc1ccc(C2C(=O)c3ccccc3C2=O)cc1 [ANISINDIONE]	9.1
CC(C)(C)c1cc(C2C(=O)c3ccccc3C2=O)cc(C(C)(C)C)c1	2.8
O=C1c2ccc(Br)cc2C(=O)C1(F)c1ccccc1 (stereo not drawn)	2.3
O=C1CCCCC(=O)C1c1ccc2c(c1)OCO2	25

The compounds below were run against T2, Polyunsaturated fatty acid 5-lipoxygenase (Rattus norvegicus) (UniProt P12527) (assay: The compound was evaluated in vitro for inhibition of 5-lipoxygenase activity in RBL-1 cells at 20 uM).
T2 sequence (whole entry): T1 sequence (P12527 whole entry)
Type: cell-based

Compound	inhibition [%]
O=C1c2ccccc2-c2ccccc2C(=O)C1c1ccccc1	50

The compounds below were run against T2, Polyunsaturated fatty acid 5-lipoxygenase (Rattus norvegicus) (assay: The compound was evaluated in vitro for inhibition of 5-lipoxygenase activity in RBL-1 cells at 100 uM).
Type: cell-based

Compound	inhibition [%]
O=C1CCCCCC(=O)C1c1ccccc1	45

These compounds were tested against T1, Polyunsaturated fatty acid 5-lipoxygenase (assay: The compound was evaluated in vitro for inhibition of 5-lipoxygenase activity in RBL-1 cells; No significant inhibitory activity up to 30 uM).
Type: cell-based

Compound	IC50
O=C(O)c1ccc(C2C(=O)c3ccccc3C2=O)cc1	Not Active

These compounds were tested against T2, Polyunsaturated fatty acid 5-lipoxygenase (Rattus norvegicus) (assay: The compound was evaluated in vitro for inhibition of 5-lipoxygenase activity in RBL-1 cells at 30 uM).
Type: cell-based

Compound	inhibition [%]
O=C1C(c2ccccc2)=C(c2ccccc2)C(=O)C1c1ccccc1	45
O=C1c2ccccc2C(=O)C1c1cccc2ccccc12	14

These compounds were tested against T1, Polyunsaturated fatty acid 5-lipoxygenase (assay: In vitro for inhibition of 5-lipoxygenase activity in RBL-1 cells.).
Type: cell-based

Compound	IC50
O=C1CC(=O)c2ccccc21	Not Active
O=C1C(=Cc2ccccc2)C(=O)c2ccccc21	Not Active
O=C1c2ccccc2[C@@H](O)[C@H]1c1ccccc1	Not Active
O=C1c2cccc3cccc(c23)C(=O)C1c1ccccc1	Not Active
COC1=C(c2ccccc2)C(=O)c2ccccc21	Not Active
O=C1C(c2ccccc2)C(=O)C2CC=CCC12 (stereo not drawn)	Not Active
O=C1c2ccccc2C(=O)C1(c1ccccc1)C1(c2ccccc2)C(=O)c2ccccc2C1=O	Not Active
O=C1CCC(=O)C1c1ccccc1	Not Active
O=C(c1ccccc1)C(C(=O)c1ccccc1)c1ccccc1	Not Active
C=CCC1C(=O)c2ccccc2C1=O	Not Active
O=C1c2ccccc2C(=O)N1c1ccccc1 [N-PHENYL-PHTHALIMIDE]	Not Active
O=C1c2ccccc2C(=O)C1[N+](=O)[O-]	Not Active
COc1ccc(C=C2C(=O)c3ccccc3C2=O)cc1	Not Active
O=C1CCCC(=O)C1c1ccccc1	Not Active
O=C1c2ccccc2[C@H](O)[C@H]1c1ccccc1	Not Active

Each compound was assayed against T1, Polyunsaturated fatty acid 5-lipoxygenase (assay: The compound was evaluated in vitro for inhibition of 5-lipoxygenase activity in RBL-1 cells.).
Type: cell-based

Compound	IC50 [µM]
O=C1c2ccccc2C(=O)C1C1C(=O)c2ccccc2C1=O	28
